The results in this text go back to US20260115177A1, “MEDICINAL PRODUCTS AND METHODS FOR THE ALLEVIATION OF CANCER IMMUNOTHERA-PY-ASSOCIATED CYTOKINE RELEASE SYNDROME” (POOLBEG PHARMA (UK) LIMITED, priority 2023, published 2026).

Common to all, as to type: cell-based, human
The subject of one test is CAR T cells. Briefly: CAR T cell proliferation in CAR T cell:cancer cell co-culture (Cell Trace Violet, flow cytometry). The note with it: CAR T:tumour cell co-culture 1:1; concentrations of Table 2. The protocol:
CAR T cell proliferation is confirmed by Cell Trace™ Violet staining of CAR T cells (staining agent having been added prior to addition of the T cells to the co-cultures with tumour cells). Staining may be observed, following co-culture, via flow cytometry.
UR-13870, Ralimetinib or Acumapimod are each added to a culture of CD19+ cancer cells (using a micropipette to transfer the correct volume to achieve the desired final concentration in Table 2).
CAR T cells are then added to the same culture 5-10 minutes later. In brief, CAR T cell concentrations per ml are determined and used to aliquot the desired number of CAR T cells into the culture to achieve the described 1:1 CAR T to cancer cell ratio.
The co-culture containing CAR T cells and tumour cells is swirled gently to ensure homogenous dispersion of cells throughout the vessel. The resultant co-culture is incubated for 24 to 96 hours in a closed incubator at 37° C. with 5% CO2 and a suitably humid atmosphere.
(In general: A flow cytometer gives signals particle by particle.)

Test [1] relates to HUVEC endothelial cells. Briefly: QPCR of VCAM1, ICAM1 and IL-6 in HUVEC cells treated with sCAR. The note with it: 24 hours. The protocol: In like manner and also in Example 3 below, sCAR (or smCAR) is added to endothelial (HUVEC) cells, available from the American Type Culture Collection, and using an equivalent protocol to the treatment of THP-1 cells (but with individually optimised conditions, such as the concentration of sCAR used), following which IL-6 release and IL-8 release are observed. Pro-inflammatory cytokines IL-6 and IL-8 are measured using an enzyme-linked immunosorbent assay (ELISA) and IL-6, ICAM1 and VCAM1 are measured by quantitative PCR (QPCR, for which a kit is suitably obtainable from Thermo Fisher Scientific of Kingfisher Dr, Swindon SN3 5BZ, UK).
sCAR (or smCAR), produced as described in Example 1 above, is added to a monoculture of HUVEC endothelial cells in the presence of UR-13870, Ralimetinib or Acumapimod at each of the concentrations shown in Table 2 above, at 37° C., 5% CO2 and a suitably humid environment for 24 hours.

For test [2], the system named is HUVEC endothelial cells. Briefly: IL-6 and IL-8 ELISA of HUVEC cells treated with sCART-mono supernatant. The note with it: 24 hr, concentrations of Table 2. How it is done: With reference to FIG. 13 of the accompanying drawings, a co-culture (100) is established using a standard cell culture transwell dish, including a first compartment (101), containing CAR T cells and cancer cells (at a 1:1 ratio), which is separated from a second compartment (102), containing monocytes, by a semi-permeable membrane (103) composed of tissue-culture treated polyethylene terephthalate with a 0.4 μm pore size.
Each of UR-13870, Acumapimod and Ralimetinib are administered to the co-culture following a procedure analogous to that described in Example 2 above (at the concentrations as shown in Table 2 above).
The co-culture is incubated at 37° C., 5% CO2 and a suitably humid environment for 24 hours. On completion, the transwell insert is removed and supernatant is isolated. Cells and debris are removed from the supernatant by exposing the container to a centripetal force of 400 G and gently pipetting the supernatant into a new container without disturbing the cell pellet at the bottom of the previous container.
Prior to adding the p38 inhibitors and sCART-mono, endothelial cells are incubated overnight at 37° C. and 5% CO2 in a suitably humid environment to allow the cells to adhere fully to the tissue culture dish.
Supernatant levels of IL-6 and IL-8 are determined following 24 hr treatment with sCART-mono and the p38 MAPK inhibitors by ELISA.

As to `OCCCn1cc2c(-c3ccc(F)cc3)c(-c3ccncc3)c(-c3ccc(F)cc3)nc2n1` [UR-13870, 6-bis(4-fluorophenyl)-5-(4-pyridinyl)-2Hpyrazolo[3,4-b]pyridine-2-propanol], the “CAR T cell proliferation (Cell Trace Violet staining)” value in the test on CAR T cells is recorded as “maintain CAR T cell proliferation”. For the same compound, in the test with HUVEC endothelial cells [1], the “ICAM1 mRNA levels” value was “significantly reduce”; the “IL-6 mRNA levels” value is given as “significantly reduce”; the “VCAM1 mRNA levels” value is listed as “reduced, albeit non-significantly”. In addition, in the test with HUVEC endothelial cells [2], the “IL-6 levels in supernatant” value is “reduced” and the “IL-8 levels in supernatant” value is “(albeit non-significant) downward trend”.
